Experimental data as given in patent US12428422B2, “Purine derivatives as SIK-3 inhibitors” (RHIZEN PHARMACEUTICALS AG, priority 2020, dated 2025).

Test system: SK-OV-3 cell lines
Assay: MTT cell growth inhibition, combination with talzoparib, SK-OV-3
Format: cell-based
Conditions: combined with talzoparib, 72 hrs
Protocol: Assay 5: Combination of Compound M1 with Standard Agents in Different Cell Lines
Day 0 • The cells were pelleted and counted. • Cells were plated at desired density (100 μl/well) in complete media in a 96-well plate in triplicates. A column for Day “0” reading was also seeded. (18-20 hrs after initial plating and before addition of the inhibitors) • Plates were incubated at 37° C. and 5% CO2. Day 1 • 10 μl of MTT (5 mg/ml) were added to the column designated for Day “0”. It was mixed well and incubated at 37° C. and 5% CO2 for 3.5 h. Cells were pelleted down at 4000 rpm for 10 minutes. • Media was aspirated out and 150 μl of DMSO were added to the cells and mixed by pipetting to dissolve the crystals • The plate was read at A560 nm and A640 nm. Day 2 • A series of dilutions of the inhibitors were initially made in 100% DMSO and further diluted in growth medium. • Cells were treated with either single agent of DMSO, compound M1, talzoparib, and combination of compound M1 and talzoparib (OVCAr-3 and SK-OV-3). […]
The plate was read at A560 nm and A640 nm.
Reference absorbance values were subtracted from test absorbance values. Day 0 values were subtracted from final day absorbance values for determining cell growth. % Cell growth inhibitions were calculated.

For `CC[C@H](Nc1ncnc2[nH]c(O)nc12)c1oc2ccccc2c(=O)c1-c1cccc(F)c1` [Compound M1, (S)-3-(3-fluorophenyl)-2-(1-((8-hydroxy-9H-purin-6-yl)amino)propyl)-4H-chromen-4-one], the “cell growth inhibition in combination” value was “synergistic results”.
